According to patent US20240025919A1, “AZA-TETRACYCLIC OXAZEPINE COMPOUNDS AND USES THEREOF” (Genentech, Inc., priority 2022, published 2024):
Where two headings read alike, the source gives them in different places.

How the values were obtained:
[1] = molecular target: KRAS G12D (Homo sapiens (Human), UniProt P01116, G12D); test: KRAS G12D LoEnz Biochemical Assay, BODIPY-GDP Exchange TR-FRET (SOS1-mediated nucleotide exchange); conditions: read-out: KRas (G12D) GDP HTRF IC50
Protocol: Example 500: KRAS G12D LoEnz Biochemical Assay, BODIPY-GDP Exchange TR-FRET. Biochemical compound potencies are assessed by evaluating inhibition of SOS1I-mediated nucleotide exchange in KRAS G121D. In this assay, the SOS1-promoted exchange of fluorescently-labeled GDP (BOPIDY-GDP) is monitored by time-resolved fluorescence resonance energy transfer (TR-FRET). Compounds solubilized in DMS0 are dispensed as concentration series into 384-well white assay plates. A preformed complex of biotin-tagged recombinant human KRAS (0.06 nM mutant G1 2D) and 0.06 nM terbium-labeled streptavidin (CisBIO) prepared in 10 uL/well assay buffer (20 mM HEPES, pH 7.5, 50 mM NaCl, 10 mMMMgCl2, 0.0100 Tween-20 and 1 mM dithiothreitol) is added and allowed to incubate for 10-minutes at room temperature. The reaction is initiated with the addition of 5 uL 300 nM recombinant human SOS1 and 300 nM BODIPY-GDP in assay buffer. After a 120-minute incubation, the fluorescence is measured with excitation at 337 nm and emission at 490 and 520 nm. The TR-FRET ratio is determined as the fluorescence at 520 nm divided by the fluorescence at 490 nm multiplied by 10,000. The results are normalized to percent inhibition based on control samples: DMSO (0% inhibition) and control compound at a concentration that inhibits completely (100% inhibition). The normalized TR-FRET results are plotted against compound concentration, and the data are fit to a 4-parameter Hill equation to determine the IC50 values.

[2] = molecular target: KRAS WT (Homo sapiens (Human), UniProt P01116); test: KRAS WT Biochemical Assay, BODIPY-GDP Exchange TR-FRET (Example 501; 3 nM KRAS WT, 3 nM SOS1, 60-minute incubation)
Sequence of KRAS WT (P01116-2 other isoform, or with tags, fused parts or gaps): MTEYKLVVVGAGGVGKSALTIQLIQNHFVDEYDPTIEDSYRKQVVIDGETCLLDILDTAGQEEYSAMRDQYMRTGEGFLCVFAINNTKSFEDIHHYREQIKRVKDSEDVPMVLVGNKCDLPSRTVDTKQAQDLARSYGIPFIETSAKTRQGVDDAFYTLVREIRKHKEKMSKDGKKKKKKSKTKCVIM
Protocol: Example 501: KRAS WT Biochemical Assay, BODIPY-GDP Exchange TR-FRET. Biochemical compound potencies are assessed by evaluating inhibition of SOS1-mediated nucleotide exchange in KRAS WT. In this assay, the SOS1-promoted exchange of fluorescently-labeled GDP (BOPIDY-GDP) is monitored by time-resolved fluorescence resonance energy transfer (TR-FRET). Compounds solubilized in DMSO are dispensed as concentration series into 384-well white assay plates, and 5 uL assay buffer (20 mM HEPES, pH 7.5, 50 mM NaCl, 10 mM MgCl2, 0.01% Tween-20 and 1 mM dithiothreitol) is added just prior to the start of the assay. A preformed complex of 3 nM biotin-tagged recombinant human KRAS WT and 0.3 nM terbium-labeled streptavidin (CisBIO) prepared in 5 uL/well assay buffer is added and allowed to incubate for 10-minutes at room temperature. The reaction is initiated with the addition of 5 uL 3 nM recombinant human SOS1 and 300 nM BODIPY-GDP in assay buffer. After a 60-minute incubation, the fluorescence is measured with excitation at 337 nm and emission at 490 and 520 nm. The TR-FRET ratio is determined as the fluorescence at 520 nm divided by the fluorescence at 490 nm multiplied by 10,000. The results are normalized to percent inhibition based on control samples: DMSO (0% inhibition) and control compound at a concentration that inhibits completely (100% inhibition). The normalized TR-FRET results are plotted against compound concentration, and the data are fit to a 4-parameter Hill equation to determine the IC50 values.

[3] = read-out: KRas(wt) GDP HTRF IC50

Sequence of KRAS G12D (P01116-2 other isoform, or with tags, fused parts or gaps G12D): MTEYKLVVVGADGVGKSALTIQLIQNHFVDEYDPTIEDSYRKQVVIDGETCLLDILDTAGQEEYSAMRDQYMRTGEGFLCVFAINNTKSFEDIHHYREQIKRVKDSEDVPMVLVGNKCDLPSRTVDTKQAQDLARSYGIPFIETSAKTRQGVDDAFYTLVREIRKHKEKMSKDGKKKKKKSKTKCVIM

SMILES	IC50 [1] [nM]	IC50 [2, 3] [nM]	IC50 ([2]; read-out: KRas HTRF IC50) [nM]
C#Cc1cccc2cc(O)cc(-c3nc4c5c(nc(OC[C@@]67CCCN6C[C@H](F)C7)nc5c3F)N3C[C@H]5CC[C@H](CN5CC5COC5)[C@H]3CO4)c12 [Compound 51, 5-ethynyl-4-((5aS,6R,9R)-1-fluoro-12-(((2R,7aS)-2-fluorotetrahydro-1H-pyrrolizin-7a(5H)-yl)methoxy)-14-(oxetan-3-ylmethyl)-5a,6,7,8,9,10-hexahydro-5H-4-oxa-3,10a,11,13,14-pentaaza-6,9-ethanonaphtho[1,8-ab]heptalen-2-yl)naphthalen-2-ol]	0.3	5.6	
Cc1c(F)c(N)cc(-c2nc3c4c(nc(OC[C@]56CCN5CC(F)(F)C6)nc4c2F)N2C[C@H]4CC[C@H](N4)[C@H]2[C@H](C)O3)c1C(F)(F)F [Compound 24, 5-((5S,5aS,6S,9R)-12-(((R)-3,3-difluoro-1-azabicyclo[3.2.0]heptan-5-yl)methoxy)-1-fluoro-5-methyl-5a,6,7,8,9,10-hexahydro-5H-4-oxa-3,10a,11,13,14-pentaaza-6,9-methanonaphtho[1,8-ab]heptalen-2-yl)-2-fluoro-3-methyl-4-(trifuoromethyl)aniline]	0.29	3.28	
Cc1nc(N)cc(-c2nc3c4c(nc(OCC5(CN6CC7CCC(C6)O7)CC5)nc4c2F)N2C[C@H]4CC[C@H](N4)[C@H]2[C@H](C)O3)c1C(F)(F)F [Compound 207, 4-((5S,5aS,6S,9R)-12-((1-((8-oxa-3-azabicyclo[3.2.1]octan-3-yl)methyl)cyclopropyl)methoxy)-1-fluoro-5-methyl-5a,6,7,8,9,10-hexahydro-5H-4-oxa-3,10a,11,13,14-pentaaza-6,9-methanonaphtho[1,8-ab]heptalene-2-yl)-6-methyl-5-(trifluoromethyl)pyridin-2-amine]	0.36		43.1
Cc1c(F)c(N)cc(-c2nc3c4c(nc(OC[C@@]56CCCN5C[C@H](F)C6)nc4c2F)N2C[C@H]4CC[C@H](N4)[C@H]2C(CF)O3)c1C(F)(F)F (stereo partly drawn) [Compound 239, 2-Fluoro-5-((5aS,6S,9R)-1-fluoro-5-(fluoromethyl)-12-(((2R,7aS)-2-fluorotetrahydro-1H-pyrrolizin-7a(5H)-yl)methoxy)-5a,6,7,8,9,10-hexahydro-5H-4-oxa-3,10a,11,13,14-pentaaza-6,9-methanonaphtho[1,8-ab]heptalen-2-yl)-3-methyl-4-(trifluoromethyl)aniline]	0.58		0.94
C[C@@H]1Oc2nc(-c3cccc(N)c3F)c(F)c3nc(OC[C@@]45CCCN4C[C@H](F)C5)nc(c23)N2C[C@H]3CC[C@H](N3)[C@@H]12 [Compound 12, 2-fluoro-3-((5S,5aS,6S,9R)-1-fluoro-12-(((2R,7aS)-2-fluorotetrahydro-1H-pyrrolizin-7a(5H)-yl)methoxy)-5-methyl-5a,6,7,8,9,10-hexahydro-5H-4-oxa-3,10a,11,13,14-pentaaza-6,9-methanonaphtho[1,8-ab]heptalen-2-yl)aniline]	379	37400	
C[C@@H]1Oc2nc(-c3cccc4cccc(Cl)c34)c(F)c3nc(OC[C@@]45CCCN4C[C@H](F)C5)nc(c23)N2C[C@H]3CC[C@H](N3)[C@@H]12 [Compound 8, (5S,5aS,6S,9R)-2-(8-chloronaphthalen-1-yl)-1-fluoro-12-(((2R,7aS)-2-fluorotetrahydro-1H-pyrrolizin-7a(5H)-yl)methoxy)-5-methyl-5a,6,7,8,9,10-hexahydro-5H-4-oxa-3,10a,11,13,14-pentaaza-6,9-methanonaphtho[1,8-ab]heptalene]	1.78	146	
Cc1c(Cl)c(N)cc(-c2nc3c4c(nc(OC[C@@]56CCCN5C[C@H](F)C6)nc4c2Cl)N2C[C@H]4CC[C@H](N4)[C@H]2[C@H](C)O3)c1C(F)(F)F [Compound 241, 2-Chloro-5-((5S,5aS,6S,9R)-1-chloro-12-(((2R,7aS)-2-fluorotetrahydro-1H-pyrrolizin-7a(5H)-yl)methoxy)-5-methyl-5a,6,7,8,9,10-hexahydro-5H-4-oxa-3,10a,11,13,14-pentaaza-6,9-methanonaphtho[1,8-ab]heptalen-2-yl)-3-methyl-4-(trifluoromethyl)aniline]	0.13		15.4
Cc1c(F)c(N)c(F)c(-c2nc3c4c(nc(OC[C@@]56CCCN5C[C@H](F)C6)nc4c2F)N2C[C@H]4CC[C@H](N4)[C@H]2[C@H](C)O3)c1Cl [Compound 195, 4-Chloro-2,6-difluoro-3-((5S,5aS,6S,9R)-1-fluoro-12-(((2R,7aS)-2-fluorotetrahydro-1H-pyrrolizin-7a(5H)-yl)methoxy)-5-methyl-5a,6,7,8,9,10-hexahydro-5H-4-oxa-3,10a,11,13,14-pentaaza-6,9-methanonaphtho[1,8-ab]heptalen-2-yl)-5-methylaniline]	0.44		108
C[C@@H]1Oc2nc(-c3cc(O)cc4ccccc34)c(F)c3nc(OC[C@]45CCN4CC(F)(F)C5)nc(c23)N2C[C@H]3CC[C@H](N3)[C@@H]12 [Compound 25, 4-((5S,5aS,6S,9R)-12-(((R)-3,3-difluoro-1-azabicyclo[3.2.0]heptan-5-yl)methoxy)-1-fluoro-5-methyl-5a,6,7,8,9,10-hexahydro-5H-4-oxa-3,10a,11,13,14-pentaaza-6,9-methanonaphtho[1,8-ab]heptalen-2-yl)naphthalen-2-ol]	2.04	126	
Cc1nc(N)c(F)c(-c2nc3c4c(nc(OCC56CCN5CC(F)(F)C6)nc4c2F)N2C[C@H]4CC[C@H](N4)[C@H]2[C@H](C)O3)c1C(F)(F)F (stereo partly drawn) [Compound 220, 4-((5S,5aS,6S,9R)-12-((3,3-Difluoro-1-azabicyclo[3.2.0]heptan-5-yl)methoxy)-1-fluoro-5-methyl-5a,6,7,8,9,10-hexahydro-5H-4-oxa-3,10a,11,13,14-pentaaza-6,9-methanonaphtho[1,8-ab]heptalene-2-yl)-3-fluoro-6-methyl-5-(trifluoromethyl)pyridin-2-amine]	0.92		149
Cc1c(F)c(N)c(F)c(-c2nc3c4c(nc(OC[C@@]56CCCN5C/C(=C\F)C6)nc4c2F)N2C[C@H]4CC[C@H](N4)[C@H]2[C@H](C)O3)c1C(F)(F)F [Compound 229, 2,6-Difluoro-3-((5S,5aS,6S,9R)-1-fluoro-12-(((S,Z)-2-(fluoromethylene)tetrahydro-1H-pyrrolizin-7a(5H)-yl)methoxy)-5-methyl-5a,6,7,8,9,10-hexahydro-5H-4-oxa-3,10a,11,13,14-pentaaza-6,9-methanonaphtho[1,8-ab]heptalene-2-yl)-5-methyl-4-(trifluoromethyl)aniline]	0.36		12
C[C@@H]1Oc2nc(-c3cncc4ccccc34)c(F)c3nc(OC[C@@]45CCCN4CC4(CC4(F)F)C5)nc(c23)N2C[C@H]3CC[C@H](N3)[C@@H]12 (stereo partly drawn) [Compound 30, (5S,5aS,6S,9R)-12-(((7a′S)-2,2-difluorodihydro-1′H,3′H-spiro[cyclopropane-1,2′-pyrrolizin]-7a′(5′H)-yl)methoxy)-1-fluoro-2-(isoquinolin-4-yl)-5-methyl-5a,6,7,8,9,10-hexahydro-5H-4-oxa-3,10a,11,13,14-pentaaza-6,9-methanonaphtho[1,8-ab]heptalene]	19.4	598	
Cc1c(F)c(N)cc(-c2nc3c4c(nc(OC[C@@]56CCCN5C[C@H](F)C6)nc4c2F)N2CCNC[C@H]2[C@H](C)O3)c1C(F)(F)F (single isomer, unassigned) [235 (isomer 1)]	65.8		143
C[C@@H]1Oc2nc(N(C)c3ccc(F)c(N)c3)c(F)c3nc(OC[C@@]45CCCN4C[C@H](F)C5)nc(c23)N2C[C@H]3CC[C@H](N3)[C@@H]12 [Compound 193, 4-fluoro-Ni-((5S,5aS,6S,9R)-1-fluoro-12-(((2R,7aS)-2-fluorotetrahydro-1H-pyrrolizin-7a(5H)-yl)methoxy)-5-methyl-5a,6,7,8,9,10-hexahydro-5H-4-oxa-3,10a,11,13,14-pentaaza-6,9-methanonaphtho[1,8-ab]heptalen-2-yl)-Ni-methylbenzene-1,3-diamine]	32800		128000
